Test results from US6681132B1, “Sodium magnetic reasonance imaging used in diagnosing tumors and assessing response to treatment” (The Trustees of Columbia University in the City of New York, priority 1999, dated 2004).

Experiments:
Type in all cases: cell-based, human
DU145 cells = test: APO-BRDU endlabelling of DNA fragmentation, flow cytometry, DU145; settings: for time course of DNA fragmentation: DU 145, 24-hr sample point
Experimental: Chemotherapy, cellular apoptosis, ion activity Cells were cultured and drugs added to media for various times. Fluorescent endlabelling techniques for flow cytometry have been described in detail (23, 97). […] TdT attaches BrdU to DNA ends, following which fluorescent antibodies for BrdU tagged the DNA fragments. Propidium iodide (PI) gives cell cycle position.
At the end of the treatment period, cells are trypsinized, resuspended in media, resuspended in PBS, resuspended in iced cold methanol free formaldehyde (1% in PBS) for 15 min, resuspended in 70% ethanol and stored at −20° C. until all samples from a given experiment are ready to run (19, 23).
Fixed cells are labeled following kit instructions (two washes with kit buffer, overnight endlabelling, two resuspensions in a rinse buffer, exposure to fluorescent antibody and treatment with propidium iodide and RNAase. Flow cytometry is performed on a Becton/Dickenson FACStar II. Individual fluorescence intensity values for 10,000 cells are obtained for each sample.
To specifically assay DNA fragmentation, a downstream response to apoptosis, uses of a terminal deoxynucleotidyl transferase labeling approach whereby fluorescent moieties are enzymatically attached to all DNA fragment ends.

PC3 cells [1] = test: Annexin V/FITC labeling of live (propidium iodide negative) cells, flow cytometry
Experimental: Enhanced FITC fluorescence (annexin positive response; panel B) indicated reorientation of phosphatidylserine within the cell membrane. PI was added to detect dead cells, which was both PI and annexin positive, the latter response due to internal binding of an antibody to phosphatidylserine sites accessed through membrane rupture. Control cells were mostly PI and FITC negative. The percentage of live PC3 cells that were annexin positive (vertical axis) is plotted versus time (horizontal axis) for taxotere (10 nM; filled circles) and VP-16 (10 ug/ml; filled triangles). A one dimensional annexin histogram (FITC intensity) for live cells is shown for control (bottom insert) and after 24 hrs VP-16 (top insert). Flow cytometry was performed on the Becton/Dickenson FACStar II (APO-BrdU) or exCaliber flow system (Annexing) at the Columbia University Cancer Center and analyzed using CellQuest Software.
a) Early events—reorientation of phosphatidylserine: Live cells exposed to an Annexin V/FITC conjugated antibody. Enhanced fluorescence indicates reorientation of phosphatidylserine within the cell membrane (61, 93). Propidium iodide (PI) concurrently indicates cell viability. Since trypsin cleaves the annexin binding site, for dissociating cells from explanted tumor, trypsin containing collagenase preparations were not used. Cells are dissociated by mincing the tumor with surgical scissors and passing tissue repeatedly through needles while increasing the gauge. Cells are removed from tissue culture plates using 1 mM EDTA in Ca/Mg free PBS.
Flow cytometry was used to examine a second, presumably an earlier event in the apoptotic cascade, reorientation of phosphatidylserine within the cell membrane (FIG. 3.B.). Live cells were exposed to an annexin\V/FITC conjugated antibody. For annexin labeling, cells were cultured for 1 day, treated, then lifted off the culture plate using PBS plus EDTA and exposed to Annexin V/FITC conjugated antibody. Trypsin—which cleaves the antibody binding site—was avoided.

PC3 cells [2] = test: Free [Nai] with SBFI/AM in 96 well plates, fluorescent plate reader; settings: for earliest time of increase of mean SBFI ratio ([Nai]): 10 nM taxotere or 10 μg/ml VP-16 etoposide
From the text: For ion measurements (panels C & D), plates were run on a Fluoroskan II fluorescent plate reader (Titertek) using Titertek's computer Interface. Fura II loaded wells (panel D) had measured fluorescence intensities between 15,000 and 25,000 units whereby dye free wells had values ˜100 and 500. The wells with SBFI/AM loaded cells (panel C) had intensities between 4,000 and 9,000 units. Two excitation values were used for each well measurement. Ratios were derived by dividing fluorescent intensity at 345 nm excitation by that at 390 nm, both with a 508 nm mission filter. For all plates, dye free wells were examined for both control and drug treated cells, and served as background values for each wavelength. For [Cai] experiments a second means of determining background fluorescence, which gave statistically similar results, was exposure to 6 mM MnCl2 following the initial measurement. […] Backgrounds were subtracted from each cell in the protocol grouping prior to the ratio being derived. These individual well to well ratios for each protocol grouping were averaqed and used in the statistical tests which determined whether the changes in [Nai] and [Cai] following drug application were significant. Each value plotted below consisted of at least n=5 well ratios. As an additional control, we induced an acute [Cai] response in some control wells for each plate by adding thapsigargin after the initial measurement. Rapid and large [Cai] changes were detected in each case. To derive concentration values from the fluorescence readings, different, but standard approaches (26, 73), were taken with each dye. Both panels C and D show elevation of ion activity developing within 2-6 hours, and in the most part continuing for 18-24 hours.
b. SBFI/AM—This dual excitation wavelength dye is used in a fluorescent plate scanner. With SBFI/AM, we can treat cells cultured in black (non fluorescent) 96 well plates and measure average [Nai] of the cells in each well. [Nai] is calculated using ratio method and in situ calibration—thus ionophores (monensin and gramidicidin) eliminate the transmembrane gradient so that [Nai] can be altered by changing [Nao].
Comparison of the latency of these apoptotic markers with the ionic responses induced by taxotere and VP-16 at the same doses (10 nM and 10 ug/ml, respectively). […] Since its dual wavelength ultraviolet excitation requirement is impractical for flow cytometry, adherent cells were examined in 96 well culture plates using a fluorescent plate reader (Titertek, Fluoroskan II). […] The ratios of emission intensity at the two excitation wavelengths were calculated for each well, and the average ratio plotted for each time point (FIG. 3.C.; left vertical axis). […]

[3] = 24 hrs, VP-16 10 μg/ml, taxotere 10 nM

| Structure (SMILES) | time course of DNA fragmentation (DU145 cells) | time by which markers for apoptosis were detectable (PC3 cells [1]; 10 nMol/L in culture) [h] | time by which markers for apoptosis were pronounced (PC3 cells [1]; 10 nMol/L in culture) [h] | annexin V response (PC3 cells [1]; [3]) | standard dose relative to Kd of annexin V dose response curve (PC3 cells [1]; Kd measured at 48 hrs, standard dose 10 nM) | annexin V response (PC3 cells [1]; higher drug concentrations (10.0 μM) or later times (e.g. 48 hrs)) | earliest time of increase of mean SBFI ratio ([Nai]) (PC3 cells [2]) [h] | persistence of ionic elevations ([Nai], [Cai]) (PC3 cells [2]; 10 nMol/L in tissue culture) | time by which ionic elevations ([Nai], [Cai]) were significant (PC3 cells [2]; 10 nMol/L in tissue culture) [h] | endlabelling response (DU145 cells; Du145, 8 hrs) | increase of endlabelling intensity (DNA fragmentation) (DU145 cells; Du145, 24 hrs exposure) [fold] | fraction of live cells (propidium iodide negative) in the annexin V positive peak (PC3 cells [1]; 10 μg/ml, maximum response (24 hrs)) | annexin V response (PC3 cells [1]; 17 hrs, 10 μg/ml) | standard dose relative to Kd of annexin V dose response curve (PC3 cells [1]; Kd measured at 24 hrs, standard dose 10 μg/ml) |
| --- | --- | --- | --- | --- | --- | --- | --- | --- | --- | --- | --- | --- | --- | --- |
| CC(=O)O[C@@]12CO[C@@H]1C[C@H](O)[C@@]1(C)C(=O)[C@H](O)C3=C(C)[C@@H](OC(=O)[C@H](O)[C@@H](NC(=O)OC(C)(C)C)c4ccccc4)C[C@@](O)([C@@H](OC(=O)c4ccccc4)[C@H]21)C3(C)C [taxotere] | response peaks and subsides | ≤ 24 | ≤ 48 | much less pronounced | approximately 3 ×Kd | substantially greater | 2 | at least 24 hrs | ≤ 6 | – | – | – | – | – |
| COc1cc([C@@H]2c3cc4c(cc3[C@@H](O[C@@H]3O[C@@H]5CO[C@@H](C)O[C@H]5[C@H](O)[C@H]3O)[C@H]3COC(=O)[C@H]23)OCO4)cc(OC)c1O [VP-16, etoposide] | response peaks and subsides | – | – | pronounced | – | – | 2 | – | – | No response | 100 | Up to ⅔ | apparent | approximately 3 ×Kd |
